Earlier results, collected in patent publication EP3466870B1, “SURFACE-MODIFIED SODIUM HYPOCHLORITE PENTAHYDRATE CRYSTAL, AND METHOD FOR PRODUCING SAME” (Nippon Light Metal Company, Ltd., priority 2016, dated 2017).
Like-named read-outs stand apart in the source and are kept apart here.

Settings: in water at 25°C

## O=C(O)C(=O)O [oxalic acid]
First value listed
  pKa: 1.04
Second value listed
  pKa: 3.82

## O=C(O)O [carbonic acid]
First value listed
  pKa: 6.11
Second value listed
  pKa: 9.87
